Reference: PubChem BioAssay (NCI)
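A five-concentration, 48-hour dose response in 96-well plates underlies each endpoint, interpolated linearly between surrounding concentrations. At the TGI there is no net growth.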

Tests used:
Assay in all cases: NCI anticancer screen, dose series, 48 h
786-0 renal = test system: 786-0 renal
A498 renal = test system: A498 renal
A549 NSCLC = test system: A549 NSCLC
CAKI-1 renal = test system: CAKI-1 renal
CCRF-CEM leukemia = test system: CCRF-CEM leukemia
COLO 205 colon = test system: COLO 205 colon
DLD-1 colon = test system: DLD-1 colon
DMS 114 small cell lung = test system: DMS 114 small cell lung
DMS 273 small cell lung = test system: DMS 273 small cell lung
EKVX NSCLC = test system: EKVX NSCLC
HCC-2998 colon = test system: HCC-2998 colon
HCT-116 colon = test system: HCT-116 colon
HCT-15 colon = test system: HCT-15 colon
HL-60(TB) leukemia = test system: HL-60(TB) leukemia
HOP-18 NSCLC = test system: HOP-18 NSCLC
HOP-62 NSCLC = test system: HOP-62 NSCLC
HOP-92 NSCLC = test system: HOP-92 NSCLC
HT29 colon = test system: HT29 colon
IGROV1 ovarian = test system: IGROV1 ovarian
K-562 leukemia = test system: K-562 leukemia
KM12 colon = test system: KM12 colon
KM20L2 colon = test system: KM20L2 colon
LOX IMVI melanoma = test system: LOX IMVI melanoma
LXFL 529 NSCLC = test system: LXFL 529 NSCLC
M14 melanoma = test system: M14 melanoma
M19-MEL melanoma = test system: M19-MEL melanoma
MALME-3M melanoma = test system: MALME-3M melanoma
MOLT-4 leukemia = test system: MOLT-4 leukemia
NCI-H226 lung = test system: NCI-H226 lung
NCI-H23 lung = test system: NCI-H23 lung
NCI-H460 lung = test system: NCI-H460 lung
NCI-H522 lung = test system: NCI-H522 lung
OVCAR-3 ovarian = test system: OVCAR-3 ovarian
OVCAR-4 ovarian = test system: OVCAR-4 ovarian
OVCAR-5 ovarian = test system: OVCAR-5 ovarian
OVCAR-8 ovarian = test system: OVCAR-8 ovarian
RPMI-8226 leukemia = test system: RPMI-8226 leukemia
RXF 393 renal = test system: RXF 393 renal
RXF-631 renal = test system: RXF-631 renal
SF-268 CNS = test system: SF-268 CNS
SF-295 CNS = test system: SF-295 CNS
SF-539 CNS = test system: SF-539 CNS
SK-MEL-2 melanoma = test system: SK-MEL-2 melanoma
SK-MEL-5 melanoma = test system: SK-MEL-5 melanoma
SK-OV-3 ovarian = test system: SK-OV-3 ovarian
SN12C renal = test system: SN12C renal
SNB-19 CNS = test system: SNB-19 CNS
SNB-75 CNS = test system: SNB-75 CNS
SNB-78 CNS = test system: SNB-78 CNS
SW-620 colon = test system: SW-620 colon
TK-10 renal = test system: TK-10 renal
U251 CNS = test system: U251 CNS
UACC-257 melanoma = test system: UACC-257 melanoma
UACC-62 melanoma = test system: UACC-62 melanoma
UO-31 renal = test system: UO-31 renal
XF 498 CNS = test system: XF 498 CNS
SR leukemia = test system: SR leukemia

## COC(=O)CCC1=NOC(CC2CC(CCC(=O)OC)=NO2)C1 (configuration not stated)
786-0 renal
  TGI: > 100 µM
A498 renal
  TGI: > 100 µM
A549 NSCLC
  TGI: > 100 µM
CAKI-1 renal
  TGI: > 100 µM
CCRF-CEM leukemia
  TGI: > 100 µM
COLO 205 colon
  TGI: > 100 µM
DLD-1 colon
  TGI: > 100 µM
DMS 114 small cell lung
  TGI: > 100 µM
DMS 273 small cell lung
  TGI: > 100 µM
EKVX NSCLC
  TGI: > 100 µM
HCC-2998 colon
  TGI: > 100 µM
HCT-116 colon
  TGI: > 100 µM
HCT-15 colon
  TGI: > 100 µM
HL-60(TB) leukemia
  TGI: > 100 µM
HOP-18 NSCLC
  TGI: > 100 µM
HOP-62 NSCLC
  TGI: > 100 µM
HOP-92 NSCLC
  TGI: > 100 µM
HT29 colon
  TGI: > 100 µM
IGROV1 ovarian
  TGI: > 100 µM
K-562 leukemia
  TGI: > 100 µM
KM12 colon
  TGI: > 100 µM
KM20L2 colon
  TGI: > 100 µM
LOX IMVI melanoma
  TGI: > 100 µM
LXFL 529 NSCLC
  TGI: > 100 µM
M14 melanoma
  TGI: > 100 µM
M19-MEL melanoma
  TGI: > 100 µM
MALME-3M melanoma
  TGI: > 100 µM
MOLT-4 leukemia
  TGI: > 100 µM
NCI-H226 lung
  TGI: > 100 µM
NCI-H23 lung
  TGI: > 100 µM
NCI-H460 lung
  TGI: > 100 µM
NCI-H522 lung
  TGI: > 100 µM
OVCAR-3 ovarian
  TGI: > 100 µM
OVCAR-4 ovarian
  TGI: > 100 µM
OVCAR-5 ovarian
  TGI: > 100 µM
OVCAR-8 ovarian
  TGI: > 100 µM
RPMI-8226 leukemia
  TGI: > 100 µM
RXF 393 renal
  TGI: > 100 µM
RXF-631 renal
  TGI: > 100 µM
SF-268 CNS
  TGI: > 100 µM
SF-295 CNS
  TGI: > 100 µM
SF-539 CNS
  TGI: > 100 µM
SK-MEL-2 melanoma
  TGI: > 100 µM
SK-MEL-5 melanoma
  TGI: > 100 µM
SK-OV-3 ovarian
  TGI: > 100 µM
SN12C renal
  TGI: > 100 µM
SNB-19 CNS
  TGI: > 100 µM
SNB-75 CNS
  TGI: > 100 µM
SNB-78 CNS
  TGI: > 100 µM
SW-620 colon
  TGI: > 100 µM
TK-10 renal
  TGI: > 100 µM
U251 CNS
  TGI: > 100 µM
UACC-257 melanoma
  TGI: > 100 µM
UACC-62 melanoma
  TGI: > 100 µM
UO-31 renal
  TGI: > 100 µM
XF 498 CNS
  TGI: > 100 µM

## CC(C)=CCCC(C)[C@H]1CC(O)C2(C)C3=CCC4C(C)(C)[C@@H](O)CC[C@]4(C)C3=CC[C@]12C (some centres not stated)
786-0 renal
  TGI: 3.52 µM
A498 renal
  TGI: 16.3 µM
A549 NSCLC
  TGI: 10.6 µM
CAKI-1 renal
  TGI: 24.4 µM
CCRF-CEM leukemia
  TGI: 25.8 µM
COLO 205 colon
  TGI: 20.7 µM
DLD-1 colon
  TGI: 27.1 µM
DMS 114 small cell lung
  TGI: 33.5 µM
DMS 273 small cell lung
  TGI: 3.74 µM
EKVX NSCLC
  TGI: > 100 µM
HCT-116 colon
  TGI: 6.22 µM
HCT-15 colon
  TGI: 45.7 µM
HL-60(TB) leukemia
  TGI: 35 µM
HOP-18 NSCLC
  TGI: 31.6 µM
HOP-62 NSCLC
  TGI: 18.9 µM
HOP-92 NSCLC
  TGI: 9.53 µM
HT29 colon
  TGI: 14.6 µM
IGROV1 ovarian
  TGI: 48.7 µM
K-562 leukemia
  TGI: 26.6 µM
KM12 colon
  TGI: > 100 µM
KM20L2 colon
  TGI: 93.6 µM
LOX IMVI melanoma
  TGI: 1.07 µM
LXFL 529 NSCLC
  TGI: 5.09 µM
M14 melanoma
  TGI: 18.5 µM
M19-MEL melanoma
  TGI: 13.8 µM
MALME-3M melanoma
  TGI: 34.2 µM
MOLT-4 leukemia
  TGI: 42.4 µM
NCI-H226 lung
  TGI: 15.1 µM
NCI-H23 lung
  TGI: 14.9 µM
NCI-H460 lung
  TGI: 4.92 µM
NCI-H522 lung
  TGI: 16.2 µM
OVCAR-3 ovarian
  TGI: 13.1 µM
OVCAR-4 ovarian
  TGI: 6.48 µM
OVCAR-5 ovarian
  TGI: > 100 µM
OVCAR-8 ovarian
  TGI: 3.79 µM
RPMI-8226 leukemia
  TGI: 34.4 µM
RXF 393 renal
  TGI: 7.59 µM
RXF-631 renal
  TGI: 34 µM
SF-268 CNS
  TGI: 28.3 µM
SF-295 CNS
  TGI: 5.91 µM
SF-539 CNS
  TGI: 6.58 µM
SK-MEL-2 melanoma
  TGI: 79.5 µM
SK-MEL-5 melanoma
  TGI: > 100 µM
SK-OV-3 ovarian
  TGI: 24.8 µM
SN12C renal
  TGI: 12.3 µM
SNB-19 CNS
  TGI: 30.2 µM
SNB-75 CNS
  TGI: 21.3 µM
SNB-78 CNS
  TGI: 32.4 µM
SR leukemia
  TGI: 44.2 µM
SW-620 colon
  TGI: 14.7 µM
TK-10 renal
  TGI: 50.1 µM
U251 CNS
  TGI: 6.54 µM
UACC-257 melanoma
  TGI: > 100 µM
UACC-62 melanoma
  TGI: 15.1 µM
UO-31 renal
  TGI: 41.6 µM
XF 498 CNS
  TGI: 25.1 µM

## COc1ccc(C(c2ccc(C(C)C)cc(OC)c2=O)c2ccc(C(C)C)cc(OC)c2=O)cc1
786-0 renal
  TGI: 30.5 µM
A498 renal
  TGI: 31.7 µM
A549 NSCLC
  TGI: 24.6 µM
CAKI-1 renal
  TGI: 33.3 µM
CCRF-CEM leukemia
  TGI: 38.5 µM
COLO 205 colon
  TGI: 31.1 µM
DLD-1 colon
  TGI: 19.6 µM
DMS 114 small cell lung
  TGI: 24.7 µM
DMS 273 small cell lung
  TGI: 28 µM
EKVX NSCLC
  TGI: 26.6 µM
HCT-116 colon
  TGI: 23.1 µM
HCT-15 colon
  TGI: 25.3 µM
HL-60(TB) leukemia
  TGI: 41.9 µM
HOP-18 NSCLC
  TGI: 40.1 µM
HOP-62 NSCLC
  TGI: 35.5 µM
HOP-92 NSCLC
  TGI: 27.1 µM
HT29 colon
  TGI: 22.7 µM
K-562 leukemia
  TGI: 35.9 µM
KM12 colon
  TGI: 26.4 µM
KM20L2 colon
  TGI: 27 µM
LOX IMVI melanoma
  TGI: 31 µM
LXFL 529 NSCLC
  TGI: 28.1 µM
M14 melanoma
  TGI: 28 µM
M19-MEL melanoma
  TGI: 27.1 µM
MALME-3M melanoma
  TGI: 30.6 µM
MOLT-4 leukemia
  TGI: 31.3 µM
NCI-H226 lung
  TGI: 32.3 µM
NCI-H23 lung
  TGI: 30.8 µM
NCI-H460 lung
  TGI: 30 µM
NCI-H522 lung
  TGI: 27.8 µM
OVCAR-3 ovarian
  TGI: 26 µM
OVCAR-4 ovarian
  TGI: 24.9 µM
OVCAR-5 ovarian
  TGI: 34.3 µM
OVCAR-8 ovarian
  TGI: 32.5 µM
RPMI-8226 leukemia
  TGI: 25.6 µM
RXF 393 renal
  TGI: 15 µM
RXF-631 renal
  TGI: 34.8 µM
SF-268 CNS
  TGI: 26.5 µM
SF-295 CNS
  TGI: 29.7 µM
SF-539 CNS
  TGI: 30.9 µM
SK-MEL-2 melanoma
  TGI: 29.3 µM
SK-MEL-5 melanoma
  TGI: 27.4 µM
SK-OV-3 ovarian
  TGI: 32.3 µM
SN12C renal
  TGI: 30.3 µM
SNB-19 CNS
  TGI: 29.3 µM
SNB-75 CNS
  TGI: 34 µM
SNB-78 CNS
  TGI: 27.3 µM
SR leukemia
  TGI: 38.2 µM
SW-620 colon
  TGI: 28.8 µM
TK-10 renal
  TGI: 34.2 µM
U251 CNS
  TGI: 26.6 µM
UACC-257 melanoma
  TGI: 29 µM
UACC-62 melanoma
  TGI: 28.1 µM
UO-31 renal
  TGI: 27.3 µM
XF 498 CNS
  TGI: 34.7 µM
